Data set [1] has as its system CCR2 expressing cells (CD11b+Ly6c+Hi monocytes). As to the kind of experiment: In vivo depletion assay (flow cytometry of peripheral blood). On the set-up: species or system human CCR2 (hCCR2) knock-in mice. The following applies: IV bolus 0.1 mpk compound + 10 mpk anti-cotinine antibody (mouse IgG2a Fc), 48 hours. The procedure:
(§1) Human CCR2 (hCCR2) knock-in mice (C57 background) were dosed intravenously with a PBS solution containing a compound of Formula (I) to measure depletion of CCR2 expressing cells in peripheral blood. Peripheral blood from IV dosed mice was also analyzed to determine PK properties of the compounds of Formula (I).
Formulations preparation: On the day of experiment, the stock solution of the compound of Formula (I) was removed from storage at −20° C. and thawed at room temperature. Anti-cotinine antibody having a heavy chain sequence of SEQ ID NO: 13 and a light chain sequence of SEQ ID NO: 14 (rabbit variable region sequence with mouse IgG2a Fc domain), if required was removed from storage at −80° C. and thawed at room temperature. Antibody vials were immediately transferred into wet ice after thawing. Compounds of Formula (I) were further diluted in DMSO as per experimental requirements.
Formulation composition: The formulation composition was Saline: DMSO: PBS. Saline was added based on the quantity required and then stock solution of the compound of Formula (1) prepared in DMSO, followed by addition of antibody in PBS. Formulations were incubated at room temperature for 30 minutes before administration to the mouse. DMSO was used at 1 to 2% (v/v) in the final formulation.
(§2) Administration to Animal: Solution formulation of antibody and compound of Formula (I) was injected (bolus injection) to the restrained mouse in the right/left lateral tail vein. Animals were dosed with 0.1 milligram per kilogram (mpk) of the compound of Formula (I) and 10 mpk of the anti-cotinine antibody.
(§3) Terminal bleeding at end of experiment (48 hr): Approximately 250 μL of blood in K2EDTA tube and approximately 250 μL of blood in SST (serum separation tube) was collected from each mouse through retro-orbital bleeding under deep isoflurane anesthesia. After bleeding, each mouse was sacrificed by cervical dislocation. The blood distribution at termination was determined as follows: • For PK: 50 μL of K2EDTA blood was transferred to another tube for PK • Flow cytometry: Remaining blood (˜200 μL) was used for flow cytometry analysis. • For serum collection: serum separator tubes (BD) were centrifuged at 4° C., 5000 rpm for 15 minutes. Approximately 100 μL serum was separated and stored at −80° C. for further usage. • Blood drug concentration: Samples collected at the various timepoints (0.25 hr, 2 hr, 24 and 48 hr) were analyzed to determine blood drug concentration.
Flow cytometry analysis: CCR2 depletion in peripheral blood was determined by flow cytometry. Briefly, peripheral blood was collected from all animals at the end of study termination and processed. […]
Percent depletion of CD11b+Ly6c+Hi cells and CCR2 expression for the different treatment groups was determined. […]
(In general: A flow cytometer gives signals particle by particle.)

Data set [2] is described as follows: Blood drug concentration analysis (PK) in the in vivo depletion assay. The following applies: human CCR2 (hCCR2) knock-in, C57 background, mouse, whole blood, LC-MS/MS, IV bolus 0.1 mpk compound + 10 mpk anti-cotinine antibody, 48 hours post-dose, read-out: Exposure of Compound of Formula (I) 48 hours post-dose. Further details: species or system human CCR2 (hCCR2) knock-in mice. The method, then:
as §1, §2
Collection of Blood for PK: Blood was collected at time points 0.25 hour, 2 hours, and […] following administration (50 μL/time point) through retro-orbital bleeding under mild isoflurane anesthesia.
as §3
Blood drug concentration analysis: Drug concentration in blood samples was determined by an LC-MS/MS-based bioanalytical method developed at Syngene. Samples were analyzed on Q-Trap, API-5500 LC-MS/MS system coupled with Exion UHPLC system from SCIEX, USA operated in multiple reaction monitoring mode employing electrospray ionization technique in positive polarity. Analyte and internal standard peaks were resolved on Synergi Polar, 75×2.0 mm, 4 μcolumn using mobile phase 10 mM Ammonium acetate in Milli-Q water as phase A and 0.1% Formic acid in acetonitrile as Phase B. Gradient elution was performed with initial composition 95% Phase A at 0.0 min, holding it for 0.2 minutes, ramping to 5% by 1.0 minute, keeping the same for next 0.5 minutes and coming back to 95% by 1.6 minutes. The total run time was 2 minutes.
Working dilutions for calibration curve and quality control standards were prepared by serially diluting 20 mg/mL stock solution with DMSO. Spiked concentrations for calibration curve in the whole blood ranged from 1 ng/mL to 1000 ng/mL. […]

The text below walks through data of patent US20250057958A1, “CYTOTOXICITY TARGETING CHIMERAS FOR CCR2-EXPRESSING CELLS” (GLAXOSMITHKLINE INTELLECTUAL PROPERTY DEVELOPMENT LIMITED, priority 2022, published 2025).

Molecules are shown by their SMILES.

Consider `CC(=O)N[C@@H]1C[C@H](NC(C)(C)C)CC[C@@H]1N1CC[C@H](Nc2nc(CCCCNC(=O)[C@H]3CC[C@H](NC(=O)CCCO[C@H]4CC[C@H](OCCNC(=O)[C@H]5CC(=O)N(C)[C@@H]5c5cccnc5)CC4)CC3)nc3ccc(C(F)(F)F)cc23)C1=O` [Example 3, (2S,3S)-N-(2-(((1R,4S)-4-(4-(((1S,4R)-4-((4-(4-(((S)-1-((1S,2R,4R)-2-Acetamido-4-(tert-butylamino)cyclohexyl)-2-oxopyrrolidin-3-yl)amino)-6-(trifluoromethyl)quinazolin-2-yl)butyl)carbamoyl)cyclohexyl)amino)-4-oxobutoxy)cyclohexyl)oxy)ethyl)-1-methyl-5-oxo-2-(pyridin-3-yl)pyrrolidine-3-carboxamide], for which the “% Depletion of CCR2 expressing cells” value in data set [1] worked out at 84%. Also, in data set [2], the concentration at 48 h was found to be 37.1 ng/mL.
For the molecule `CC(=O)N[C@@H]1C[C@H](NC(C)(C)C)CC[C@@H]1N1CC[C@H](Nc2nc([C@H]3CC[C@@H](NC(=O)[C@H]4CC[C@H](NC(=O)CCCO[C@H]5CC[C@H](OCCNC(=O)[C@H]6CC(=O)N(C)[C@@H]6c6cccnc6)CC5)CC4)CC3)nc3ccc(C(F)(F)F)cc23)C1=O` [Example 10, (2S,3S)-N-(2-(((1R,4S)-4-(4-(((1R,4R)-4-(((1R,4S)-4-(4-(((S)-1-((1S,2R,4R)-2-Acetamido-4-(tert-butylamino)cyclohexyl)-2-oxopyrrolidin-3-yl)amino)-6-(trifluoromethyl)quinazolin-2-yl)cyclohexyl)carbamoyl)cyclohexyl)amino)-4-oxobutoxy)cyclohexyl)oxy)ethyl)-1-methyl-5-oxo-2-(pyridin-3-yl)pyrrolidine-3-carboxamide], in data set [1], the “% Depletion of CCR2 expressing cells” value was 89.71%. In addition, the concentration at 48 h in data set [2] worked out at 35.5 ng/mL.
`CC(=O)N[C@@H]1C[C@H](NC(C)(C)C)CC[C@@H]1N1CC[C@H](Nc2nc([C@H]3CC[C@H](NC(=O)[C@H]4CC[C@H](NC(=O)CCCO[C@H]5CC[C@H](OCCNC(=O)[C@H]6CC(=O)N(C)[C@@H]6c6cccnc6)CC5)CC4)CC3)nc3ccc(C(F)(F)F)cc23)C1=O` [Example 11, (2S,3S)-N-(2-(((1R,4S)-4-(4-(((1S,4R)-4-(((1S,4R)-4-(4-(((S)-1-((1S,2R,4R)-2-Acetamido-4-(tert-butylamino)cyclohexyl)-2-oxopyrrolidin-3-yl)amino)-6-(trifluoromethyl)quinazolin-2-yl)cyclohexyl)carbamoyl)cyclohexyl)amino)-4-oxobutoxy)cyclohexyl)oxy)ethyl)-1-methyl-5-oxo-2-(pyridin-3-yl)pyrrolidine-3-carboxamide]: the “% Depletion of CCR2 expressing cells” value in data set [1] came out at 95.41%. Besides, the concentration at 48 h in data set [2] came out at 93.4 ng/mL.
